{"source": "patent US6984633B2", "about": "“Method to treat cardiofibrosis with a combination therapy of an angiotensin II antagonist and epoxymexrenone” (G.D Searle & Co., priority 1995, dated 2006)", "test_system": "rabbit aortic rings", "experiment": "Assay B: In vitro vascular smooth muscle response for AII, antagonist activity in aortic rings", "assay_type": "cell-based", "details": "for Assay B pA2: two determinations separated by /", "protocol": "Assay B: In Vitro Vascular Smooth Muscle-Response for AII\nThe compounds of the invention were tested for antagonist activity in rabbit aortic rings. Male New Zealand white rabbits (2-2.5 kg) were sacrificed using an overdose of pentobarbital and exsanguinated via the carotid arteries. The thoracic aorta was removed, cleaned of adherent fat and connective tissue and then cut into 3-mm ring segments. The endothelium was removed from the rings by gently sliding a rolled-up piece of filter paper into the vessel lumen. The rings were then mounted in a water-jacketed tissue bath, maintained at 37° C., between moveable and fixed ends of a stainless steel wire with the moveable end attached to an FT03 Grass transducer coupled to a Model 7D Grass Polygraph for recording isometric force responses. The bath was filled with 20 ml of oxygenated (95% oxygen/5% carbon dioxide) Krebs solution of the following composition (mM); 130 NaCl, 15 NaHCO3, […], 1.2 NaH2PO4, 1.2 MgSO4, 2.5 CaCl2, and 11.4 glucose. The preparations were equilibrated for one hour before approximately one gram of passive tension was placed on the rings. Angiotensin II concentration-response curves were then recorded (3×10^−10 to 1×10^−5 M). Each concentration of AII was allowed to elicit its maximal contraction, and then AII was washed out repeatedly for 30 minutes before rechallenging with a higher concentration of AII. Aorta rings were exposed to the test antagonist at 10^−5 M for 5 minutes before challenging with AII. Adjacent segments of the same aorta ring were used for all concentration-response curves in the presence of absence of the test antagonist. The effectiveness of the test compound was expressed in terms of pA2 values and were calculated according to H. O. Schild [Br. J. Pharmacol. Chemother., 2, 189-206 (1947)]. The pA2 value is the concentration of the antagonist which increases the EC50 value for AII by a factor of two. Each test antagonist was evaluated in aorta rings from two rabbits."}
{"smiles": "CCCCc1nc(C(F)(F)Cc2ccccc2)nn1Cc1ccc(-c2ccccc2-c2nnn[nH]2)cc1", "note": "[Compound 51]", "values": [{"measurement": "Assay B pA2", "result": 8.51}]}
{"smiles": "CCCn1nc(C(F)(F)CC)nc1Cc1ccc(-c2ccccc2-c2nnn[nH]2)nc1", "note": "[Compound 167]", "values": [{"measurement": "Assay B pA2", "result": 7.11}]}
{"smiles": "CCCCc1nc(CNC(=O)OC(C)(C)C)nn1Cc1ccc(-c2ccccc2-c2nnn[nH]2)cc1", "note": "[Compound 35]", "values": [{"measurement": "Assay B pA2", "result": 7.47}]}
{"smiles": "CCCCc1nc(C(OC)OC)nn1Cc1ccc(-c2ccccc2-c2nnn[nH]2)cc1", "note": "[Compound 24]", "values": [{"measurement": "Assay B pA2", "result": 7.73}]}
{"smiles": "CCCCn1nc(CCC)nc1Cc1ccc(-c2ccccc2-c2nnn[nH]2)nc1", "note": "[Compound 152]", "values": [{"measurement": "Assay B pA2", "result": 7.23}]}
{"smiles": "CCCCc1nc(CCC)n(Cc2ccc(-c3ccccc3-c3nnn[nH]3)cc2)n1", "note": "[Compound 15]", "values": [{"measurement": "Assay B pA2", "result": 8.30}]}
{"smiles": "CCCCc1nc(CCCC2CCCCC2)nn1Cc1ccc(-c2ccccc2-c2nnn[nH]2)cc1", "note": "[Compound 58]", "values": [{"measurement": "Assay B pA2", "result": 6.57}]}
{"smiles": "CCCCc1nc(C(=O)CCC)nn1Cc1ccc(-c2ccccc2-c2nnn[nH]2)cc1", "note": "[Compound 30]", "values": [{"measurement": "Assay B pA2", "result": 7.88}]}
{"smiles": "CCCCc1nc(-c2ccccc2)n(Cc2ccc(-c3ccccc3-c3nnn[nH]3)cc2)n1", "note": "[Compound 22]", "values": [{"measurement": "Assay B pA2", "result": 6.46}]}
{"smiles": "CCCCc1nc(CN)n(Cc2ccc(-c3ccccc3-c3nnn[nH]3)cc2)n1", "note": "[Compound 36]", "values": [{"measurement": "Assay B pA2", "result": 5.68}]}
{"smiles": "CCCCc1nc(C2CCCCC2)n(Cc2ccc(-c3ccccc3-c3nnn[nH]3)cc2)n1", "note": "[Compound 65]", "values": [{"measurement": "Assay B pA2", "result": 7.75}]}
{"smiles": "CCCCc1nc(CCC(=O)O)nn1Cc1ccc(-c2ccccc2-c2nnn[nH]2)cc1", "note": "[Compound 63]", "values": [{"measurement": "Assay B pA2", "result": 7.67}]}
{"smiles": "CCCc1nc(CCC)n(Cc2ccc(-c3ccccc3-c3nnn[nH]3)nc2)n1", "note": "[Compound 246]", "values": [{"measurement": "Assay B pA2", "result": 7.59}]}
{"smiles": "CCCCn1nc(/C=C/c2cccs2)nc1Cc1ccc(-c2ccccc2-c2nnn[nH]2)nc1", "note": "[Compound 154]", "values": [{"measurement": "Assay B pA2", "result": 8.38}]}
{"smiles": "CCCCCc1nc(CCCCC)n(Cc2ccc(-c3ccccc3-c3nnn[nH]3)cc2)n1", "note": "[Compound 13]", "values": [{"measurement": "Assay B pA2", "result": 8.85}]}
{"smiles": "CCCCn1nc(C(=O)NC)nc1Cc1ccc(-c2ccccc2-c2nnn[nH]2)nc1", "note": "[Compound 172]", "values": [{"measurement": "Assay B pA2", "result": 7.04}]}
{"smiles": "CCCCn1nc(C(C)(F)F)nc1Cc1ccc(-c2ccccc2-c2nnn[nH]2)nc1", "note": "[Compound 166]", "values": [{"measurement": "Assay B pA2", "result": 7.74}]}
{"smiles": "CCCCc1ncnn1Cc1ccc(-c2ccccc2-c2nnn[nH]2)cc1", "note": "[Compound 53]", "values": [{"measurement": "Assay B pA2", "result": 7.83}]}
{"smiles": "CCCCc1nc2c(OC(=O)C3CCCCC3)nnc(O)c2n1Cc1ccc(-c2ccccc2-c2nnn[nH]2)cc1", "note": "[Compound 120]", "values": [{"measurement": "Assay B pA2", "result": 8.77}]}
{"smiles": "CCCCc1nc(CC(OCC)OCC)n(Cc2ccc(-c3ccccc3-c3nnn[nH]3)cc2)n1", "note": "[Compound 37]", "values": [{"measurement": "Assay B pA2", "result": 6.85}]}
{"smiles": "CCCCc1nc(Cc2ccc(-c3ccccc3C(=O)O)cc2)n(CCCC)n1", "note": "[Compound 126]", "values": [{"measurement": "Assay B pA2", "result": 7.05}]}
{"smiles": "CCCCn1nc(C(OC(C)C)OC(C)C)nc1Cc1ccc(-c2ccccc2-c2nnn[nH]2)nc1", "note": "[Compound 178]", "values": [{"measurement": "Assay B pA2", "result": 7.47}]}
{"smiles": "CCCCc1nc(C(=O)O)nn1Cc1ccc(-c2ccccc2-c2nnn[nH]2)cc1", "note": "[Compound 52]", "values": [{"measurement": "Assay B pA2", "result": 8.12}]}
{"smiles": "CCCCc1nc(CCCO)nn1Cc1ccc(-c2ccccc2-c2nnn[nH]2)cc1", "note": "[Compound 45]", "values": [{"measurement": "Assay B pA2", "result": 8.24}]}
{"smiles": "CCCCn1nc(C(F)(F)CC)nc1Cc1ccc(-c2ccccc2-c2nnn[nH]2)nc1", "note": "[Compound 168]", "values": [{"measurement": "Assay B pA2", "result": 7.58}]}
{"smiles": "CCCCn1nc(-c2ccccc2Cl)nc1Cc1ccc(-c2ccccc2-c2nnn[nH]2)nc1", "note": "[Compound 158]", "values": [{"measurement": "Assay B pA2", "result": 8.14}]}
{"smiles": "CCCCc1nc(C(=O)NC)nn1Cc1ccc(-c2ccccc2-c2nnn[nH]2)nc1", "note": "[Compound 257]", "values": [{"measurement": "Assay B pA2", "result": 6.68}]}
{"smiles": "CCCCc1nc(C(F)F)nn1Cc1ccc(-c2ccccc2-c2nnn[nH]2)cc1", "note": "[Compound 47]", "values": [{"measurement": "Assay B pA2", "result": 7.58}]}
{"smiles": "CCCCc1nc(CC2CCCCC2)nn1Cc1ccc(-c2ccccc2-c2nnn[nH]2)cc1", "note": "[Compound 74]", "values": [{"measurement": "Assay B pA2", "result": 8.39}]}
{"smiles": "CCCn1nc(C(OC)OC)nc1Cc1ccc(-c2ccccc2-c2nnn[nH]2)nc1", "note": "[Compound 174]", "values": [{"measurement": "Assay B pA2", "result": 7.02}]}
{"smiles": "CCCCc1nc(Cc2ccc(-c3ccccc3-c3nnn[nH]3)nc2)n(CCCC)n1", "note": "[Compound 150]", "values": [{"measurement": "Assay B pA2", "result": 7.80}]}
{"smiles": "CCCCc1nc(CCCN)n(Cc2ccc(-c3ccccc3-c3nnn[nH]3)cc2)n1", "note": "[Compound 71]", "values": [{"measurement": "Assay B pA2 column, result given as symbol", "result": "* (Antagonist Activity not observed up to 10 μM of test compound.)"}]}
{"smiles": "CCCCc1nc(CNC(=O)CCC(NC(C)=O)C(=O)OC(C)(C)C)nn1Cc1ccc(-c2ccccc2-c2nnn[nH]2)cc1", "note": "(centres unmarked) [Compound 41]", "values": [{"measurement": "Assay B pA2", "result": 5.96}]}
{"smiles": "CCCCc1nc(CCc2ccccc2)n(Cc2ccc(-c3ccccc3-c3nnn[nH]3)cc2)n1", "note": "[Compound 25]", "values": [{"measurement": "Assay B pA2", "result": 6.73}]}
{"smiles": "CCCCc1nc(CCCNC(=O)OC(C)(C)C)n(Cc2ccc(-c3ccccc3-c3nnn[nH]3)cc2)n1", "note": "[Compound 67]", "values": [{"measurement": "Assay B pA2", "result": 5.78}]}
{"smiles": "CCCCc1nc(CCC2CCCCC2)n(Cc2ccc(-c3ccccc3-c3nnn[nH]3)cc2)n1", "note": "[Compound 42]", "values": [{"measurement": "Assay B pA2", "result": 6.26}]}
{"smiles": "CCCCc1nc(CCc2ccccc2)nn1Cc1ccc(-c2ccccc2-c2nnn[nH]2)cc1", "note": "[Compound 26]", "values": [{"measurement": "Assay B pA2", "result": 9.66}]}
{"smiles": "CCCCc1nc(CC)nn1Cc1ccc(-c2ccccc2-c2nnn[nH]2)cc1", "note": "[Compound 39]", "values": [{"measurement": "Assay B pA2", "result": 7.84}]}
{"smiles": "CCCn1nc(C(F)(F)CCC)nc1Cc1ccc(-c2ccccc2-c2nnn[nH]2)nc1", "note": "[Compound 169]", "values": [{"measurement": "Assay B pA2", "result": 7.58}]}
{"smiles": "CCCCc1nc(C(F)(F)CCC)nn1Cc1ccc(-c2ccccc2-c2nnn[nH]2)nc1", "note": "[Compound 247]", "values": [{"measurement": "Assay B pA2", "result": 8.41}]}
{"smiles": "CCCCc1nc(CCC(=O)O)n(Cc2ccc(-c3ccccc3-c3nnn[nH]3)cc2)n1", "note": "[Compound 64]", "values": [{"measurement": "Assay B pA2", "result": 6.77}]}
{"smiles": "CCCCc1nc2c(OC(=O)Cc3ccccc3)nnc(O)c2n1Cc1ccc(-c2ccccc2-c2nnn[nH]2)cc1", "note": "[Compound 124]", "values": [{"measurement": "Assay B pA2", "result": 9.12}]}
{"smiles": "CCCCn1nc(C(F)(F)CCC)nc1Cc1ccc(-c2ccccc2-c2nnn[nH]2)cc1", "note": "[Compound 130]", "values": [{"measurement": "Assay B pA2", "result": 7.94}]}
{"smiles": "CCCCc1nc(CC23CC4CC(CC(C4)C2)C3)nn1Cc1ccc(-c2ccccc2-c2nnn[nH]2)cc1", "note": "[Compound 62]", "values": [{"measurement": "Assay B pA2", "result": 8.61}]}
{"smiles": "CCCCn1nc(CCc2ccccc2)nc1Cc1ccc(-c2ccccc2-c2nnn[nH]2)nc1", "note": "[Compound 151]", "values": [{"measurement": "Assay B pA2", "result": 7.97}]}
{"smiles": "CCCCc1nc(CCCC)n(Cc2ccc(-c3ccccc3-c3nnn[nH]3)cn2)n1", "note": "[Compound 239]", "values": [{"measurement": "Assay B pA2", "result": 8.01}]}
{"smiles": "CCCCc1ncnn1Cc1ccc(-c2ccccc2C(=O)O)cc1", "note": "[Compound 18]", "values": [{"measurement": "Assay B pA2", "result": 6.09}]}
{"smiles": "CCCn1nc(C(C)(F)F)nc1Cc1ccc(-c2ccccc2-c2nnn[nH]2)nc1", "note": "[Compound 165]", "values": [{"measurement": "Assay B pA2", "result": 7.18}]}
{"smiles": "CCCCc1ncn(Cc2ccc(-c3ccccc3C(=O)O)cc2)n1", "note": "[Compound 19]", "values": [{"measurement": "Assay B pA2", "result": 5.35}]}
{"smiles": "CCCCc1nc(CC)n(Cc2ccc(-c3ccccc3C(=O)O)cc2)n1", "note": "[Compound 76]", "values": [{"measurement": "Assay B pA2", "result": 5.78}]}
